The values that follow come from patent US10562842B2, “Use of polyaminoisoprenyl derivatives in antibiotic or antiseptic treatment” (UNIVERSITE D'AIX-MARSEILLE, priority 2011, dated 2020).

A short description of data set [1]: Tolerance in mice, intraperitoneal route. Format: in vivo. The conditions noted are these: day 2, Compound 5 8.8 mg/kg, 8 1.46 mg/kg, 11 0.45 mg/kg, 14 0.35 mg/kg, 12 6.3 mg/kg. The protocol:
Mice were administered with increasing doses of test compounds by intraperitoneal route.
The mice were sacrificed on day 2 after the injection of the test compound and autopsied. No morphological anomaly was observed. Liver, lung, kidney and intestine of each mouse were fixed and analysed.

Data set [2] concerns strain IV2570060 - Escherichia coli cattle (sensible). Kind of data set: MIC of antibiotics in the presence and absence of test compound, veterinary strains. Format: cell-based. The conditions noted are these: compound at the Concentration (μM) (4-50). The protocol: (§1) For each strain and each antibiotic, the MICs were determined in the presence and in the absence of one test compound.

Data set [3] has as its system strain IV2570533 - Escherichia coli cattle (resistant). The data set is described as above. Conditions: compound at the Concentration (μM) (0.896-12.6). Type of data set: cell-based. The protocol:
as §1

In the next data set the test system is CHO-K1 cells. Format: cell-based. Conditions: for proliferation index, all the tested concentrations: Chinese hamster, 3 h. The protocol: Genotoxicity of compounds 11 and 14 was assessed by micronucleus test. The micronucleus test was performed on CHO-K1 cells with and without metabolic activation. Metabolic activation is obtained by adding in the medium S9 mix. S9 mix contains NADP, G6P and S9 fraction which is a crude preparation of enzymes obtained from the homogenized liver of rats. Briefly, CHO-K1 cells were cultured in Mc Coy's medium 5A and then transferred in the wells of Lab-Tek chamber slides at a concentration of 100 000 cells/ml. The cells were incubated during 24 h at 37° C. at CO2 (5%). The culture medium was replaced by Mc Coy's 5A medium comprising 10% per volume of S9 mix. The test compounds were added at increased concentrations. After being incubated during three hours at 37° C., the cells were rinsed with phosphate buffer (PBS) and then cultured in Mac Coy's 5A medium containing 3 μg/ml cytochalasine B. After an incubation of 21 hours at 37° C., the cells were rinsed, fixed with methanol and coloured with Giemsa 10% during 20 minutes. For each set of assays, the positive control was 0.05 μg/ml of mitomycine C or 5 μg/ml of benzo-a-pyrene. The negative control was culture medium containing 5% of PBS. The stained cells were then analysed by microscopy for the presence of micronuclei. The proliferation index was determined as follows: IP=(2×BIN+MON)/500. MON: number of mononucleated cells and BIN: number of binucleated cells.

The subject of data set [4] is strain IV2571418 - Escherichia coli pig (resistant). Nature of the data set: MIC of antibiotics in the presence and absence of test compound, veterinary strains. Type of data set: cell-based. Also noted: MIC for strain IV2571418, Doxycycline in the presence of test compound: unit not given beside the values. Conditions: compound at the Concentration (μM) (4-50). The protocol:
as §1

Data set [5] deals with strain IV2571223 - Escherichia coli pig (sensible). The description is as above. Type of data set: cell-based. Further details: MIC for strain IV2571223, Doxycycline in the presence of test compound: unit not given beside the values. The conditions noted are these: compound at the Concentration (μM) (2-50). The protocol: as §1
Data set [6] relates to Enterobacter aerogenes MDR Ea289. Kind of data set: MIC of antibiotics ± test compound (MIC ratio), micro-broth dilution. Type of data set: cell-based. Conditions: for MIC ratio Chloramphenicol E. aerogenes Ea289 / MIC ratio Doxycycline E. aerogenes Ea289 / MIC ratio Nalidixic acid E. aerogenes Ea289: Example 4. The protocol: The process consists of treating the MDR bacteria with the compounds of the invention in the presence of antibiotics.
Susceptibilities to antibiotics and compounds were determined in microplates by broth dilution method, as previously described. Minimal Inhibitory Concentrations (MICs) were determined with an inoculum of 10^6 CFU in 200 μL of MH broth containing two-fold serial dilutions of each drug. […] All MIC determinations were repeated at least three times in independent experiments.
The MICs of chloramphenicol±test compounds (MIC/4) were determined by the micro-broth dilution method (9). All MIC determinations were repeated at least three times in independent experiments. The MIC ratio corresponds to the ratio of the MIC of an antibiotic alone to the MIC of the same antibiotic in the presence of the tested compound (at MIC/4).
The compounds listed in Table 2 were tested for their ability to decrease the chloramphenicol MIC of Ea289, an Enterobacter aerogenes MDR strain (1). Each compound was first tested at MIC/4. […] All MIC determinations were repeated at least three times in independent experiments.
(§2) For reminder, the MIC ratio corresponds to the ratio of the MIC of the assessed antibiotic alone to the MIC of the same antibiotic in the presence of the tested compound (at MIC/4).
For orientation: Dilution methods test growth across graded concentrations, often in twofold steps.

The test system of data set [7] is Pseudomonas and Actinebacter strains. Kind of data set: MIC ratio, several strains. Type of data set: cell-based.
Description: as §2

For data set [8], the system named is Enterobacter, Salmonella and Escherichia strains. Nature of the data set: MIC ratio, several strains. Type of data set: cell-based.
Description: as §2

The test system of another data set is CHO cells. Kind of data set: Toxicity on CHO cultured cells. Conditions: Cricetulus griseus; killing of 50% of the CHO cells after 24 hours of incubation. Format: cell-based. The protocol: The toxicity of each compound was determined on CHO cultured cells. Incubation of CHO cells was performed with serial dilution of compounds. The compounds are either solubilized in DMSO or in PBS. The IC50 corresponds to the concentration of compounds leading to a killing of 50% of the CHO cells after 24 hours of incubation.

Setting [9] is: chloramphenicol, compound at MIC/4, Set 2.

For the compound `CC(C)=CCC/C(C)=C/CC/C(C)=C/CNCCCN(C)CCCN` [Compound 14, {3-[(3-Amino-propyl)-methyl-amino]-propyl}-((2E,6E)-3,7,11-trimethyl-dodeca-2,6,10-trienyl)-amine], the “tissue anomaly (liver, lung, kidney, intestine)” value in data set [1] is “no significant tissue anomaly”. In data set [2], the “MIC for strain IV2570060, Doxycycline in the presence of test compound” value worked out at 0.0625 and the “MIC for strain IV2570060, Tylosine in the presence of test compound” value was 8. In addition, in data set [3], the “MIC for strain IV2570533, Doxycycline in the presence of test compound” value came out at 1 and the “MIC for strain IV2570533, Tylosine in the presence of test compound” value is reported as 8. In addition, in the data set on CHO-K1 cells, the “genotoxicity in vitro (micronucleus test)” value is given as “not genotoxic in vitro” and the “proliferation index, all the tested concentrations” value is “higher than 50%”. Besides, in data set [4], the “MIC for strain IV2571418, Doxycycline in the presence of test compound” value was 2 and the “MIC for strain IV2571418, Tylosine in the presence of test compound” value came out at 4. Besides, in [5], the “MIC for strain IV2571223, Doxycycline in the presence of test compound” value stood at 0.03125 and the “MIC for strain IV2571223, Tylosine in the presence of test compound” value amounted to 2. Further, in [6] (setting [9]), the “MIC ratio (*) on Ea289 Chl” value was 8. Further, in data set [6] (compound at MIC/4), the “MIC ratio Chloramphenicol E. aerogenes Ea289” value is recorded as 8, the “MIC ratio Doxycycline E. aerogenes Ea289” value amounted to 64 and the “MIC ratio Nalidixic acid E. aerogenes Ea289” value is on record as 32.
By IC50 is commonly meant the concentration needed to halve the response being measured. For `CC(C)=CCCC(C)=CCNCCCN(CCCN)CCCN` (racemic) [Compound 11, {3-[Bis-(3-amino-propyl)-amino]-propyl}-(3,7-dimethyl-octa-2,6-dienyl)-amine], the “tissue anomaly (liver, lung, kidney, intestine)” value in data set [1] is “no significant tissue anomaly”. Moreover, in [2], the “MIC for strain IV2570060, Doxycycline in the presence of test compound” value was 0.0625 and the “MIC for strain IV2570060, Tylosine in the presence of test compound” value was found to be 4. In [3], the “MIC for strain IV2570533, Doxycycline in the presence of test compound” value was found to be 1 and the “MIC for strain IV2570533, Tylosine in the presence of test compound” value was 4. Moreover, in the data set on CHO-K1 cells, the “genotoxicity in vitro (micronucleus test)” value was “not genotoxic in vitro” and the “proliferation index, all the tested concentrations” value is recorded as “higher than 50%”. Also, in data set [4], the “MIC for strain IV2571418, Doxycycline in the presence of test compound” value is reported as 2 and the “MIC for strain IV2571418, Tylosine in the presence of test compound” value is given as 4. In addition, in data set [7] (Pseudomonas and Actinebacter strains), the “sensitivity of strains to chloramphenicol” value is “greatly increased the sensitivity”. Besides, in data set [7] (tetracycline), the “sensitivity to tetracycline, Pseudomonas and Actinebacter strains” value is on record as “increased the sensitivity”. For the same compound, in data set [8] (Enterobacter Salmonella and Escherichia strains), the “sensitivity for chloramphenicol, nalidixic acid, doxycycline and oxacillin” value was “increased the sensitivity”. Besides, in [8] (tetracycline, data not shown), the “sensitivity to tetracycline, Enterobacter, Salmonella and E. coli strains” value is given as “such an increase was not observed”. In data set [5], the “MIC for strain IV2571223, Doxycycline in the presence of test compound” value is given as 0.03125 and the “MIC for strain IV2571223, Tylosine in the presence of test compound” value worked out at 16. This compound had a 50% inhibitory concentration (IC50) in the data set with CHO cells of 0.282 mM. In addition, the “Effective concentration (mM) for a MIC ratio of chloramphenicol ≥ 8 on Ea289” value in data set [6] (chloramphenicol) was 0.0078 mM. In addition, the “efficient concentration, times lower than the control PAβN” value in data set [6] (chloramphenicol MIC ratio of 8 on Ea289) is “about 4.9 times”. In data set [6] (chloramphenicol on Ea289), the “activity, effective concentration compared with PAβN to reach a MIC ratio of 8” value is “strong activity”. In addition, in [6] (chloramphenicol, compound at MIC/4, Set 1), the “MIC ratio (*) on Ea289 Chl” value is listed as 16. The “MIC ratio (*) on Ea289 Chl” value in data set [6] (setting [9]) was found to be 8. Moreover, in data set [6] (compound at MIC/4), the “MIC ratio Chloramphenicol E. aerogenes Ea289” value amounted to 8, the “MIC ratio Doxycycline E. aerogenes Ea289” value came out at 32 and the “MIC ratio Nalidixic acid E. aerogenes Ea289” value is given as 8. Moreover, in [6] (erythromycin, compound at MIC/4, Set 1), the “MIC ratio(*) on Ea289 Ery” value was 32. Besides, the “MIC ratio (*) on Ea289 Nal” value in [6] (nalidixic acid, compound at MIC/4, Set 1) stood at 8.
